Measurements: US10383950B2, “Methods and compositions of carrier systems for the purpose of intracellular drug targeting” (HELMHOLTZ-ZENTRUM FÜR INFEKTIONSFORSCHUNG GMBH, priority 2014, dated 2019)

Experiments:
[1] = cited from earlier work
[2] = In vitro release of gentamicin (dialysis membrane setup); conditions: 37° C., PBS pH 7.4, 10.000 MWCO cellulose membrane

gentamicin
pKa [1]: 8.2 | time at which gentamicin became detectable in the bulk release medium [2]: ≤ 1 min | time to complete release / permeation of gentamicin [2]: 1.5 h
